In publication PMC7410094 (ACS chemical biology, 2020):

How the values were obtained:
MelBSt = MelBSt (Salmonella enterica, UniProt P30878); assay: Trp to dansyl FRET; format: binding; settings: DDM or MTG-E13 micelles; active site
MelBEC = MelBEC (Escherichia coli, UniProt P02921); assay: Trp to dansyl FRET; format: binding; settings: MTG-E13 micelles (response lost in DDM); active site
β2AR = β2AR (Homo sapiens, UniProt P07550); assay: radioligand binding assay; settings: labelled compound; antagonist; DDM or MTG micelles at CMC+0.2 wt%
β2AR, sequence (P07550 whole entry): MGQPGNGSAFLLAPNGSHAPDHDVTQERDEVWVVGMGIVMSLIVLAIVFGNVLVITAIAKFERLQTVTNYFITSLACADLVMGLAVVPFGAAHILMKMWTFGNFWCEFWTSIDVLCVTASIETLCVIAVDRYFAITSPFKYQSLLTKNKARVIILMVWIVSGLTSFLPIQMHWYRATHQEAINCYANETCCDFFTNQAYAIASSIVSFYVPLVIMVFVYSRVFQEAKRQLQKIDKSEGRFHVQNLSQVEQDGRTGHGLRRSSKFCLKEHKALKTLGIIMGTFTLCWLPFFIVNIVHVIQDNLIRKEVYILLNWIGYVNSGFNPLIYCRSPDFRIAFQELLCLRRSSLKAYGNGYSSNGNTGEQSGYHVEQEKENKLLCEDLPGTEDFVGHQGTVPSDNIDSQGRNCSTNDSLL

MelBEC, sequence (P02921 2-473): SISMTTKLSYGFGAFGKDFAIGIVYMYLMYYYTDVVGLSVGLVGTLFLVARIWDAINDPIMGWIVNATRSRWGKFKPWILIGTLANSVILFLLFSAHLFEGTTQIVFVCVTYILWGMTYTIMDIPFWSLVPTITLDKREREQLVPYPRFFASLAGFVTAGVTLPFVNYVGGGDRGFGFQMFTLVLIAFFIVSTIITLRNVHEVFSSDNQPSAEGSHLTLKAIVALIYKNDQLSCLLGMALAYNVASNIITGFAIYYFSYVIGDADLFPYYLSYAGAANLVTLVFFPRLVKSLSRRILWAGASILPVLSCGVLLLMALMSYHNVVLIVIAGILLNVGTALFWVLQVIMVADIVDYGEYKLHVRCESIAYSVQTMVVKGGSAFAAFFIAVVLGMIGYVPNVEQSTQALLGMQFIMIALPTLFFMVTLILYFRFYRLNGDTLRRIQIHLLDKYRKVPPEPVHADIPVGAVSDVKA
MelBSt, sequence (P30878 whole entry): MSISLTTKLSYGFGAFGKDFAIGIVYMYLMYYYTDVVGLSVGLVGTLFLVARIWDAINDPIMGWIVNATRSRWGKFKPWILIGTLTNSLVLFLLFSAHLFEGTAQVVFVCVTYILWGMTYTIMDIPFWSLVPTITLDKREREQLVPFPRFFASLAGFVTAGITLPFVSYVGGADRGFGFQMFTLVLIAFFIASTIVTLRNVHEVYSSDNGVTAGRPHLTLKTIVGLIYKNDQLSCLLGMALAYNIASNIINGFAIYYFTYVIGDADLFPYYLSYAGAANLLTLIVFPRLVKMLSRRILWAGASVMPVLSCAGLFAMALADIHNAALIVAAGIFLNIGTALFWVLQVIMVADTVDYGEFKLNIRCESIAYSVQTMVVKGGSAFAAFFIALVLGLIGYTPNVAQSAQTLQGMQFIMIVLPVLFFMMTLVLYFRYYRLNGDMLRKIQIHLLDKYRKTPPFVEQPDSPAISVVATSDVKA

Row | Structure (SMILES) | Trp to dansyl FRET (MelBSt) | Trp to dansyl FRET (MelBEC) | radioligand binding assay (β2AR)
1 | CN(C)c1cccc2c(S(=O)(=O)NCCS[C@@H]3O[C@H](CO)[C@H](O)[C@H](O)[C@H]3O)cccc12 [D^2G, 2’-(N-dansyl)aminoalkyl-1-thio-β-D-galactopyranoside] | DDM-solubilized MelBSt showed initial increase and subsequent decrease in the fluorescence signal | MTG-E13, was effective at preserving the functionality of this less stable MelB homologue | –
2 | CCCc1ccccc1OCC(O)CNC(C)C (stereo not drawn) [[^3H]-dihydroalprenolol] | – | – | the MTGs led to [^3H]-DHA-binding capability of the receptor comparable to DDM
